How the values were obtained:
FGFR1 = molecular target: T1, FGFR1 (Homo sapiens, UniProt P11362); assay: Kinase binding assay (kinase-tagged T7 phage, qPCR), Kd; details: read-out: FGFR1 (Kd nM)
T1 construct: made in house; host or cells: E. coli derived from BL21, infected with T7 phage

FGFR2 = molecular target: T2, FGFR2 (Homo sapiens, UniProt P21802); assay: as above; details: read-out: FGFR2 (Kd nM)
T2 construct: made in house; host or cells: E. coli derived from BL21, infected with T7 phage

BCR-FGFR1 Ba/F3 = molecular target: T3, BCR-FGFR1 Ba/F3 (Homo sapiens, UniProt P11362); assay: Ba/F3 cell viability assay (CellTiter-Glo 2.0); format: cell-based; details: Ba/F3 BCR-FGFR1 cells, 48 hours
T3 construct: host or cells: Ba/F3; the other entry of the earlier key: BCR (P11274, Breakpoint cluster region protein)
From the text: (§1) Experimental Purpose: Recombinant kinase fusions are transduced into parental Ba/F3, which becomes dependent upon this constitutive kinase activity for IL3-independent survival. Inhibition of kinase activity leads to cell death, which is monitored using CellTiter-Glo® 2.0 (Promega) which measures intracellular ATP concentration that in turn serves as a marker for viability. BCR-FGFR4 Ba/F3, BCR-FGFR1 Ba/F3 and FGFR3-BAIAP2L1 Ba/F3 were obtained from Advanced Cellular Dynamics (Seattle, WA)
(§2) Cell Viability Assay Procedure: Cell Titer-Glo® 2.0 Luminescent cell viability assay reagent was purchased from Promega (Madison, WI). BCR-FGFR4 Ba/F3, BCR-FGFR1 Ba/F3 and FGFR3-BAIAP2L1 Ba/F3 cells were cultured in RPMI1640 media supplemented with 10% fetal bovine serum. Cultures were maintained at 37° C. in a humidified atmosphere of 5% CO2 and 95% air.
(§3) Cells were plated in 96-well clear bottom/white plates (Corning #3903) at 10,000 cells/well in 100 μl of media, incubated overnight. The next day, test compound DMSO stock solutions were made at 10 mM and 2 μM final concentration. Compounds were then added to cells in a 9-dose, 10-fold dilution series starting at 30 μM with an HP 300e Digital Dispenser (each dose was applied in triplicate). DMSO was backfilled to each well up to 301 nL total volume of test compound+DMSO, and a total of 301 nL DMSO was added to a control/no test compound well in triplicate. The cells in cell culture plates were incubated with the compounds at 37° C. and 5% CO2 for 48 hours. Then 50 μl of Cell Titer Glo 2.0 reagent was added to each well of the cell culture plates. The contents were covered from light and mixed on an orbital shaker at room temperature for 10 min. Luminescence was recorded by a Synergy H1 Microplate Reader (Biotek, Winooski, VT). Cells were assessed as a percentage of DMSO only treated control cells. Curves were plotted and IC50 values were calculated using the GraphPad Prism 8 program based on a sigmoidal dose-response equation (4 parameter).

FGFR3-BAIAP2L1 Ba/F3 = molecular target: T4, FGFR3-BAIAP2L1 Ba/F3 (Homo sapiens, UniProt P22607); assay: Ba/F3 cell viability assay (CellTiter-Glo 2.0); format: cell-based; details: Ba/F3 FGFR3-BAIAP2L1 cells, 48 hours
T4 construct: host or cells: Ba/F3; the other entry of the earlier key: BAIAP2L1 (Q9UHR4, BAR/IMD domain-containing adapter protein 2-like 1)
From the text: as §1, §2, §3

FGFR3 = molecular target: T5, FGFR3 (Homo sapiens, UniProt P22607); assay: Kinase binding assay (kinase-tagged T7 phage, qPCR), Kd; details: read-out: FGFR3 (Kd nM)
T5 construct: made in house; host or cells: E. coli derived from BL21, infected with T7 phage

FGFR4 = molecular target: T6, FGFR4 (Homo sapiens, UniProt P22455); assay: as above; details: read-out: FGFR4 (Kd nM)
T6 construct: made in house; host or cells: E. coli derived from BL21, infected with T7 phage
T6 sequence (P22455 22-802): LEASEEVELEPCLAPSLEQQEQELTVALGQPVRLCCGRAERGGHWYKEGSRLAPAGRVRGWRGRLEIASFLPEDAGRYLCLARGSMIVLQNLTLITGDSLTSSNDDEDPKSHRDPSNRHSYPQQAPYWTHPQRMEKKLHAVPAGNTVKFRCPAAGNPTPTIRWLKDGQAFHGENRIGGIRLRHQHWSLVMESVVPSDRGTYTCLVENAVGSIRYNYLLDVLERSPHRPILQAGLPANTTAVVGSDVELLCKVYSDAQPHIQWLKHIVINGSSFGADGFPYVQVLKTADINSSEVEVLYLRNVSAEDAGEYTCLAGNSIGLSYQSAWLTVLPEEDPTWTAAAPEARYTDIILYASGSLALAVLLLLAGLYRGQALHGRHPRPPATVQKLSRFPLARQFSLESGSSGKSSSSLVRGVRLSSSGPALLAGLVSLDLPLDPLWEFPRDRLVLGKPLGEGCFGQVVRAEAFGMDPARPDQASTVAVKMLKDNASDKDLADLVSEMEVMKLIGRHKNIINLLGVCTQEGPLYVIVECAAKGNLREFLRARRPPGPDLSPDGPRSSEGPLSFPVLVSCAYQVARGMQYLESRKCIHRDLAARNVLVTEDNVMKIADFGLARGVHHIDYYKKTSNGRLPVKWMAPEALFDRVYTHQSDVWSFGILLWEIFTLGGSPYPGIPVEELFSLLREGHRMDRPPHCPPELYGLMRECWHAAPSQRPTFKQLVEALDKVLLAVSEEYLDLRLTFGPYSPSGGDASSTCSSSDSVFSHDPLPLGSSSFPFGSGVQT

T4 sequence (P22607 397-758 limits assumed): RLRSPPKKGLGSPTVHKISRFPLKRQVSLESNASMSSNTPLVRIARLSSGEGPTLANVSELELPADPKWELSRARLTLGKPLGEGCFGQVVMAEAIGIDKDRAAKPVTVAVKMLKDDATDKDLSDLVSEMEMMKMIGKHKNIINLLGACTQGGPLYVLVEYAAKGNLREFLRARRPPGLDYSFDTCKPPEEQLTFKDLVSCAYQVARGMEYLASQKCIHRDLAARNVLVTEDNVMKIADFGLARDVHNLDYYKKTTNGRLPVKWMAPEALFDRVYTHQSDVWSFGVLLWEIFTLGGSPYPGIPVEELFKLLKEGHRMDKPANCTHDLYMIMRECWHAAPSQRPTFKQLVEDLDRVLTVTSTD
T2 sequence (P21802 22-821): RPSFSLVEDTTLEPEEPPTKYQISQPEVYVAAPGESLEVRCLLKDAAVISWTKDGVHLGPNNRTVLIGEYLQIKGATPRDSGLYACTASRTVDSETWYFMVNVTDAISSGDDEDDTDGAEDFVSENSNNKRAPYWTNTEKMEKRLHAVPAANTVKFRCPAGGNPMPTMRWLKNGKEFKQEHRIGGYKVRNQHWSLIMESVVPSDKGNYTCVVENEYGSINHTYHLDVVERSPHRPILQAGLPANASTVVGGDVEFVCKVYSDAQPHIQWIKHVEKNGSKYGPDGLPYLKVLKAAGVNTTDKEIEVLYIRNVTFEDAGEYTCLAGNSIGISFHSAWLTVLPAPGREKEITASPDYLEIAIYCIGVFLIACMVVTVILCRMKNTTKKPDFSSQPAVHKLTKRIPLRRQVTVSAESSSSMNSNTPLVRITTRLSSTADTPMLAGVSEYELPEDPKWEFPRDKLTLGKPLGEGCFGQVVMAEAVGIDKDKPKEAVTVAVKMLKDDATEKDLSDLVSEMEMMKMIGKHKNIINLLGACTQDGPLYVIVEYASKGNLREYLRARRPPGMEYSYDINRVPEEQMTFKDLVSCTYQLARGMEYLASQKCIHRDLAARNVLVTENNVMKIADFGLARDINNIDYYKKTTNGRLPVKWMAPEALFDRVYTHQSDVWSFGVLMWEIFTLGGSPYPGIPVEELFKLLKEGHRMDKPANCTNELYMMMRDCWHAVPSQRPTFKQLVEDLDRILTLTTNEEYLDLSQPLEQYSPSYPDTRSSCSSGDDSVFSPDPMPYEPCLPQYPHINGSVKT
T1 sequence (P11362 22-822): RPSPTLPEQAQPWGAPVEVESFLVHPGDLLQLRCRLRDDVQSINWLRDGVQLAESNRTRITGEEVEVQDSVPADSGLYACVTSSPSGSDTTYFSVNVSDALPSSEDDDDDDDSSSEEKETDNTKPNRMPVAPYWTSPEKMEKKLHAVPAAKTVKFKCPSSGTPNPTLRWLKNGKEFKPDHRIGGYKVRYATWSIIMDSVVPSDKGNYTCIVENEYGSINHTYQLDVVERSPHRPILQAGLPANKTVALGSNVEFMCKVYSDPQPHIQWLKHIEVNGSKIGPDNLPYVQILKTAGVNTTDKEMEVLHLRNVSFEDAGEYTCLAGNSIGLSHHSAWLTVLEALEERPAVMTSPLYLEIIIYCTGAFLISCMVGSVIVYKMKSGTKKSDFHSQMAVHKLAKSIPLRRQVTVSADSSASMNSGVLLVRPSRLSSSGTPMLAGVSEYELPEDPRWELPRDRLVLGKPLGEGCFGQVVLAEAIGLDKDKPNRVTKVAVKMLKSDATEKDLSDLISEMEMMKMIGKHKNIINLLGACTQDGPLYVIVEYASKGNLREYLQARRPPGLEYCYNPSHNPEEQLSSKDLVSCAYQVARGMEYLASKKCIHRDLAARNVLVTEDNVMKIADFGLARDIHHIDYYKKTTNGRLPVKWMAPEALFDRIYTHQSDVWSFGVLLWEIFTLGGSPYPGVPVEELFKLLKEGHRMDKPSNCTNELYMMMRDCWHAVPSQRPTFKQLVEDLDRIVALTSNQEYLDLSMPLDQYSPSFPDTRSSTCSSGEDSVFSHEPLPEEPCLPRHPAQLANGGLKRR
T5 sequence (P22607 23-806): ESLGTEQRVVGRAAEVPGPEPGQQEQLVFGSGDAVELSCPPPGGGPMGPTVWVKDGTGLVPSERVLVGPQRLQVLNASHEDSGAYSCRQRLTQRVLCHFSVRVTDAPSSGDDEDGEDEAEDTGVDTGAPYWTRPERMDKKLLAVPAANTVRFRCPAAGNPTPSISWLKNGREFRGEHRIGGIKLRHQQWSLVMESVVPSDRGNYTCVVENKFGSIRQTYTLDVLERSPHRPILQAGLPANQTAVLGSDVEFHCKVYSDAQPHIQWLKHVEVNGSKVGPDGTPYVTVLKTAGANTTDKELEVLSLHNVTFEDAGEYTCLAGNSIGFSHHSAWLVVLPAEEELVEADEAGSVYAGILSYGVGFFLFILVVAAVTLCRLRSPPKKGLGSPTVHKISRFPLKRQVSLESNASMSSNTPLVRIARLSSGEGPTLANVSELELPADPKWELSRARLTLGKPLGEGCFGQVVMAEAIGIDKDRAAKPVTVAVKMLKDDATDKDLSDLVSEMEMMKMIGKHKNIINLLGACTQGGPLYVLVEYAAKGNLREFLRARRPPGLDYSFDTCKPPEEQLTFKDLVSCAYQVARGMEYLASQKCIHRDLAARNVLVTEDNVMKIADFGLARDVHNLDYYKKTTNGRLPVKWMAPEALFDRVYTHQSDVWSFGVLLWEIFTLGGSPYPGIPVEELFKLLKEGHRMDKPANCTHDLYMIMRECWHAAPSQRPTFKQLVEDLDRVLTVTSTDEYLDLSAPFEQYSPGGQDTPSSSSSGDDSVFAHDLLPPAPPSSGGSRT
T3 sequence (P11362 478-767 limits assumed): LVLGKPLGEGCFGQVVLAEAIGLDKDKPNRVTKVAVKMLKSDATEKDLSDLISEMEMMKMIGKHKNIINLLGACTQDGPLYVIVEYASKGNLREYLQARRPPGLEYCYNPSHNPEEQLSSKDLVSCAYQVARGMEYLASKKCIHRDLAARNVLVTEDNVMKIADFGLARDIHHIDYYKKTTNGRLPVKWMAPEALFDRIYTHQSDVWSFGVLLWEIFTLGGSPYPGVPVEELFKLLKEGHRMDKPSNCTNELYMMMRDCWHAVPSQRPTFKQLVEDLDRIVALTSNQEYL

Compound | Kd (FGFR1) [nM] | Kd (FGFR2) [nM] | IC50 (BCR-FGFR1 Ba/F3) [nM] | IC50 (FGFR3-BAIAP2L1 Ba/F3) [nM] | Kd (FGFR3) [nM] | Kd (FGFR4) [nM]
Cc1ncc(Cl)c([C@@H](C)Oc2ccc3[nH]nc(-c4ccc5c(c4)COC4(CCN(S(C)(=O)=O)CC4)O5)c3c2)c1Cl [Example 163, (R)-6-(5-(1-(3,5-Dichloro-2-methylpyridin-4-yl)ethoxy)-1H-indazol-3-yl)-1′-(methylsulfonyl)-4H-spiro[benzo[d][1,3]dioxine-2,4′-piperidine]] | 100 to 250 | 0.1 to 100 | 250 to 1000 | 0.1 to 100 | 0.1 to 100 | 100 to 250
CCN1CCC2(CCc3cc(-c4n[nH]c5ccc(O[C@H](C)c6c(C)cnnc6C)cc45)ccc3O2)CC1 [Example 111, (R)-6-(5-(1-(3,5-dimethylpyridazin-4-yl)ethoxy)-1H-indazol-3-yl)-1′-ethylspiro[chroman-2,4′-piperidine]] | 0.1 to 100 | 0.1 to 100 | 0.1 to 100 | 0.1 to 100 | 0.1 to 100 | 0.1 to 100
CCN1CCC2(CC1)OCc1cc(-c3n[nH]c4ccc(O[C@H](C)c5c(Cl)cncc5Cl)cc34)ccc1O2 [Example 96, (R)-6-(5-(1-(3,5-Dichloropyridin-4-yl)ethoxy)-1H-indazol-3-yl)-1′-ethyl-4H-spiro[benzo[d][1,3]dioxine-2,4′-piperidine]] | 0.1 to 100 | 0.1 to 100 | 100 to 250 | 0.1 to 100 | 0.1 to 100 | 0.1 to 100
C[C@@H](Oc1ccc2[nH]nc(-c3ccc(NC(=O)CN(C)C)nc3)c2c1)c1c(Cl)cncc1Cl [Example 13, N-[5-[5-[(1R)-1-(3,5-dichloro-4-pyridyl)ethoxy]-1H-indazol-3-yl]-2-pyridyl]-2-(dimethylamino)-acetamide] | 0.1 to 100 | 0.1 to 100 | 0.1 to 100 | 0.1 to 100 | 0.1 to 100 | 0.1 to 100
CCN1CCC(Oc2ncc(-c3n[nH]c4ccc(O[C@H](C)c5c(Cl)cncc5Cl)cc34)cc2C#N)CC1 [Example 119] | 0.1 to 100 | 0.1 to 100 | 250 to 1000 | 0.1 to 100 | 0.1 to 100 | 0.1 to 100
C[C@@H](Oc1ccc2[nH]nc(-c3ccc(NC4CC5(C4)CN(S(C)(=O)=O)C5)nc3)c2c1)c1c(Cl)cncc1Cl [Example 159, (R)-N-(5-(5-(1-(3,5-dichloropyridin-4-yl)ethoxy)-1H-indazol-3-yl)pyridin-2-yl)-2-(methylsulfonyl)-2-azaspiro[3.3]heptan-6-amine] | 0.1 to 100 | 0.1 to 100 | 0.1 to 100 | 0.1 to 100 | 0.1 to 100 | 0.1 to 100
Cc1cc(-c2n[nH]c3ccc(O[C@H](C)c4c(Cl)cncc4Cl)cc23)cnc1N[C@H]1CCOC1 [Example 153, 5-(5-((R)-1-(3,5-dichloropyridin-4-yl)ethoxy)-1H-indazol-3-yl)-3-methyl-N-((S)-tetrahydrofuran-3-yl)pyridin-2-amine] | 0.1 to 100 | 0.1 to 100 | 250 to 1000 | 0.1 to 100 | 0.1 to 100 | 0.1 to 100
Cc1ncc(Cl)c([C@@H](C)Oc2ccc3[nH]nc(-c4ccc(NC5CCOCC5)nc4)c3c2)c1Cl [Example 156] | 0.1 to 100 | 0.1 to 100 | 100 to 250 | 0.1 to 100 | 0.1 to 100 | 0.1 to 100
C[C@@H](Oc1ccc2[nH]nc(-c3ccc4c(c3)C(=O)CC3(CCNCC3)O4)c2c1)c1c(Cl)cncc1Cl [Example 92, (R)-6-(5-(1-(3,5-Dichloropyridin-4-yl)ethoxy)-1H-indazol-3-yl)spiro[chromane-2,4′-piperidin]-4-one] | 0.1 to 100 | 0.1 to 100 | 250 to 1000 | 0.1 to 100 | 0.1 to 100 | 0.1 to 100
Cc1ncc(Cl)c([C@@H](C)Oc2ccc3[nH]nc(-c4ccc5c(c4)COC4(CCN(CC(F)F)CC4)O5)c3c2)c1Cl [Example 166, (R)-6-(5-(1-(3,5-Dichloro-2-methylpyridin-4-yl)ethoxy)-1H-indazol-3-yl)-1′-(2,2-difluoroethyl)-4H-spiro[benzo[d][1,3]dioxine-2,4′-piperidine]] | 100 to 250 | 100 to 250 | > 1000 | 100 to 250 | 0.1 to 100 | 0.1 to 100
Cc1cc(-c2n[nH]c3ccc(O[C@H](C)c4c(Cl)cncc4Cl)cc23)cnc1N[C@@H]1CCOC1 [Example 158, 5-(5-((R)-1-(3,5-dichloropyridin-4-yl)ethoxy)-1H-indazol-3-yl)-3-methyl-N-((R)-tetrahydrofuran-3-yl)pyridin-2-amine] | 0.1 to 100 | 100 to 250 | 250 to 1000 | 0.1 to 100 | 0.1 to 100 | 0.1 to 100
Cc1cnnc(C)c1[C@@H](C)Oc1ccc2[nH]nc(-c3ccc4c(c3)COC3(CCN(C(C)C)CC3)O4)c2c1 [Example 112, (R)-6-(5-(1-(3,5-dimethylpyridazin-4-yl)ethoxy)-1H-indazol-3-yl)-1′-isopropyl-4H-spiro[benzo[d][1,3]dioxine-2,4′-piperidine]] | 0.1 to 100 | 0.1 to 100 | 0.1 to 100 | 0.1 to 100 | 0.1 to 100 | 0.1 to 100
C[C@@H](Oc1ccc2[nH]nc(-c3ccc(N)nc3)c2c1)c1c(Cl)cncc1Cl [Example 8, (R)-5-(5-(1-(3,5-Dichloropyridin-4-yl)ethoxy)-1H-indazol-3-yl)pyridin-2-amine] | 0.1 to 100 | 0.1 to 100 | 0.1 to 100 | 0.1 to 100 | 0.1 to 100 | 0.1 to 100
Cc1ncc(Cl)c([C@@H](C)Oc2ccc3[nH]nc(-c4ccc(O[C@H]5CCOC5)nc4)c3c2)c1Cl [Example 150, 5-[(1R)-1-(3,5-dichloro-2-methyl-4-pyridyl)ethoxy]-3-[6-[(3S)-tetrahydrofuran-3-yl]oxy-3-pyridyl]-1H-indazole] | 0.1 to 100 | 0.1 to 100 | 250 to 1000 | 0.1 to 100 | 0.1 to 100 | 0.1 to 100
C[C@@H](Oc1ccc2[nH]nc(-c3ccc(OC4C5CN(S(C)(=O)=O)CC54)nc3)c2c1)c1c(Cl)cncc1Cl (stereo partly drawn) [Example 162, 5-((R)-1-(3,5-dichloropyridin-4-yl)ethoxy)-3-(6-((3-(methylsulfonyl)-3-azabicyclo[3.1.0]hexan-6-yl)oxy)pyridin-3-yl)-1H-indazole] | 0.1 to 100 | 0.1 to 100 | 100 to 250 | 0.1 to 100 | 0.1 to 100 | 0.1 to 100
C[C@@H](Oc1ccc2[nH]nc(-c3ccc4c(c3)COC3(CCN(CC(F)(F)F)CC3)O4)c2c1)c1c(Cl)cncc1Cl [Example 169, 6-[5-[(1R)-1-(3,5-dichloro-4-pyridyl)ethoxy]-1H-indazol-3-yl]-1′-(2,2,2-trifluoroethyl)spiro[4H-1,3-benzodioxine-2,4′-piperidine]] | 100 to 250 | 100 to 250 | > 1000 | 0.1 to 100 | 0.1 to 100 | 0.1 to 100
Cc1ncc(Cl)c([C@@H](C)Oc2ccc3[nH]nc(-c4ccc(N[C@@H]5CCOC5)nc4)c3c2)c1Cl [Example 155, 5-(5-((R)-1-(3,5-Dichloro-2-methylpyridin-4-yl)ethoxy)-1H-indazol-3-yl)-N-((R)-tetrahydrofuran-3-yl)pyridin-2-amine] | 0.1 to 100 | 0.1 to 100 | 100 to 250 | 0.1 to 100 | 0.1 to 100 | 0.1 to 100
Cc1cc(-c2n[nH]c3ccc(O[C@H](C)c4c(Cl)cnc(C)c4Cl)cc23)cnc1O[C@@H]1CCOC1 [Example 148, 5-((R)-1-(3,5-Dichloro-2-methylpyridin-4-yl)ethoxy)-3-(5-methyl-6-(((R)-tetrahydrofuran-3-yl)oxy)pyridin-3-yl)-1H-indazole] | 250 to 1000 | 250 to 1000 | 250 to 1000 | 100 to 250 | 0.1 to 100 | 0.1 to 100
